Experimental data as given in US4937346A, “Phenyl-azacykloalkanes” (Carlsson; Per Arvid Emil, priority 1979, dated 1990).
Read-outs that look alike come from different tables or passages of the source.

Experiments:
DA autoreceptors [1] = test: Antagonism of γ-butyrolactone (GBL)-induced increase in rat brain DA synthesis rate; format: in vivo
Method: 3. Antagonism ofγ-butyrolactone (GBL)-induced increase in rat brain DA synthesis rate.
The administration of GBL in anesthetic doses inhibits nerve impulse flow in central DA neurons, thus resulting in a loss of the impulse-mediated feedback control of tyrosine hydroxylase activity and in a subsequent increase in transmitter synthesis rate (which is determined as described under 2 above). Since the GBL inhibition precludes neuronal feedback actions, antagonistic effects exerted by DA-receptor agonists upon the GBL-induced increase in synthesis are in all probability to be ascribed to their stimulating the DA autoreceptors present in the terminal area of the DA neurons.
Rats (150-300 g), were given compound 4 subcutaneously at several doses (n=7) followed by GBL (750 mg/kg i.p., 5 min. later) and NSD 1015 (100 mg/kg i.p., 10 min. later). By a subsequent procedure according to 2 above the Dopa levels (representing the DA-synthesis rates) were determined. […] The maximal reversal of the GBL-induced increase in DA synthesis rate was approximately 160% in the limbic system and 110% in corpus striatum.

[2] = tested on: rat brain tyrosine hydroxylation; test: In-vivo determination of rat brain tyrosine hydroxylation (Dopa formation after NSD 1015, reserpine-pretreated rats); conditions: sc, reserpine-pretreated rats, Dopa level
Method: 2. In-vivo determination of rat brain tyrosine hydroxylation.
The compounds under evaluation were tested biochemically for central DA-receptor (pre- and/or postsynaptic) stimulating activity. The concept of this biochemical screening method is that a DA-receptor agonist will stimulate the receptor and through regulatory feedback systems effect a decline in tyrosine hydroxylase activity and thus a subsequent reduction in the synthesis rate for DA in the presynaptic neuron. Dopa formation, as determined after in-vivo inhibition of the aromatic L-amino acid decarboxylase with NSD 1015 (3-hydroxybenzyl-hydrazine hydrochloride), is taken as an indirect measure of DA synthesis rate.
(§1) Rats (150-300 g) pretreated with reserpine were given the compounds under evaluation. Gross behavioral observations (changes in motility, stereotypies etc.) were made in order to evaluate possible postsynaptic dopamine receptor activity. Subsequent administration of NSD 1015, decapitation, brain dissection (corpora striate and the limbic fore-brain), homogenization, centrifugation, ion-exchange chromatography and spectrofluorimetric measurements (all as described in detail by Wikstrom et al., in J. Med. Chem. 21, 864-867, 1978, and references cited therein), gave the actual Dopa levels. Several doses (n=4-6) were tested in order to obtain dose-response curves for each compound and brain area. The dose of a compound producing a half-maximal decrease in the Dopa level in the rat brain part was then estimated.

[3] = tested on: postsynaptic dopamine receptor; test: Gross behavioral observations for postsynaptic dopamine receptor activity; format: in vivo, rat; conditions: gross behavioural observations, any dose tested
Description: as §1

[4] = tested on: postsynaptic dopaminergic receptor; test: Antagonism of apomorphine-induced locomotor stimulation; format: in vivo, rat
Method: 3. Evidence for postsynaptic dopminergic receptor antagonist activity of (-)-3-PPP.
The locomotor stimulating action of the dopamine receptor aqonist apomorphine is antagonized by (-)-3-PPP. […] Thus the postsynaptic receptor antagonist activity requires a larger dose than the presynaptic receptor agonist activity, which is evident after doses down to 0.25 mg/kg.
Further, (-)-3-PPP and racemic 3-PPP have been compared regarding antagonism of apomorphine-induced locomotor stimulation. Either form of 3-PPP was injected subcutaneously in a dose of 8 mg/kg 20 min and apomorphine in a dose of 1 mg/kg subcutaneously 5 min before placing the rats in the Motron for 30 min. Shown are the counts per 30 min., means± s.e.m. and number of experiments (n).

Rat rectal temperature = format: in vivo; conditions: 8 mg/kg s.c., 0-30 min
Description: It was in fact lacking any measurable temperature effects.

[5] = tested on: postsynaptic DA receptors; test: Antagonism of the reserpine-induced "neuroleptic syndrome" in the rat; format: in vivo; conditions: s.c., different doses, not even at nearly lethal doses
Description: 1. Antagonism of the reserpine-induced "neuroleptic syndrome" in the rat
Depletion of the monoamine stores with reserpine brings about a "neuroleptic syndrome" characterized by hypomotility, catalepsy, muscle rigidity, hunch-backed posture as well as a number of other central and peripheral signs of monoamine depletion. This syndrome can be reversed by the administration of drugs that stimulate postsynaptic DA receptors directly or indirectly, e.g. apomorphine, L-Dopa.
Rats (150-300 g) pretreated with reserpine (10 mg/kg i.p., 6 h before) were given compound 4 subcutaneously at different doses.

DA autoreceptors [6] = test: Turning behavior in rats with acute unistriatal KCl lesion; format: in vivo, rat; parameters: key to Catalepsy: + present; - absent; conditions: for Apomorphine-induced turning: apomorphine 1.0 mg/kg s.c. 1 h after
Description: 5. Turning behavior in rats with acute unistriatal lesion.
In animals with an acute unilateral KCl-lesion (1μ1 25% KCl lesioned side, 1μ1 20% NaCl control side, administered through previously implanted "guide cannulaes") of the striatum, compensatory counterbalancing adjustments in the intact contralateral striatum are brought about and therefore no appreciable asymmetry in body posture or torsion is observed. Disturbances in the balance produces, depending on the point of attack, ipsi- or alternatively contralateral turning. In this model postsynaptically active DA agonists (e.g. apomorphine, high dosage) elicit ipsilateral turning and rotatory behavior whereas DA antagonists (e.g. haloperidol) cause contralateral turning. Consequently it could be expected that agents acting exclusively on DA autoreceptors would produce contralateral turning in the lesioned animals.

## Br.CCCN1CCCC(c2cccc(O)c2)C1 (racemic) [Compound 4, N-n-propyl-3-(3-hydroxyphenyl)piperidine hydrobromide]
DA autoreceptors [1]; 0.5 mg/kg s.c., corpus striatum
  % Reversal of GBL-induced increase in dopamine synthesis rate: 0%
DA autoreceptors [1]; 0.5 mg/kg s.c., limbic system
  % Reversal of GBL-induced increase in dopamine synthesis rate: 58%
DA autoreceptors [1]; 1.0 mg/kg s.c., corpus striatum
  % Reversal of GBL-induced increase in dopamine synthesis rate: 17%
DA autoreceptors [1]; 1.0 mg/kg s.c., limbic system
  % Reversal of GBL-induced increase in dopamine synthesis rate: 75%
DA autoreceptors [1]; 2.0 mg/kg s.c., corpus striatum
  % Reversal of GBL-induced increase in dopamine synthesis rate: 34%
DA autoreceptors [1]; 2.0 mg/kg s.c., limbic system
  % Reversal of GBL-induced increase in dopamine synthesis rate: 92%
DA autoreceptors [1]; 4.0 mg/kg s.c., corpus striatum
  % Reversal of GBL-induced increase in dopamine synthesis rate: 51%
DA autoreceptors [1]; 4.0 mg/kg s.c., limbic system
  % Reversal of GBL-induced increase in dopamine synthesis rate: 109%
DA autoreceptors [1]; 8.0 mg/kg s.c., corpus striatum
  % Reversal of GBL-induced increase in dopamine synthesis rate: 68%
DA autoreceptors [1]; 8.0 mg/kg s.c., limbic system
  % Reversal of GBL-induced increase in dopamine synthesis rate: 126%
DA autoreceptors [1]; 16.0 mg/kg s.c., corpus striatum
  % Reversal of GBL-induced increase in dopamine synthesis rate: 86%
DA autoreceptors [1]; 16.0 mg/kg s.c., limbic system
  % Reversal of GBL-induced increase in dopamine synthesis rate: 142%
DA autoreceptors [1]; 32 mg/kg s.c. + GBL, limbic system, n=5
  Dopa concentration: 191 ± 16 ng per g tissue
DA autoreceptors [1]; 32 mg/kg s.c. + GBL, striatum, n=5
  Dopa concentration: 1063 ± 74 ng per g tissue
DA autoreceptors [1]; corpus striatum
  maximal reversal of the GBL-induced increase in DA synthesis rate: ~110%
DA autoreceptors [1]; haloperidol
  blockade by haloperidol of the antagonism of GBL-induced increase: the antagonism could be blocked by haloperidol
DA autoreceptors [1]; haloperidol 1 mg/kg i.p. + 32 mg/kg compound 4, limbic system, n=3
  Dopa concentration: 387 ± 32 ng per g tissue
DA autoreceptors [1]; haloperidol 1 mg/kg i.p. + 32 mg/kg compound 4, striatum, n=3
  Dopa concentration: 2193 ± 53 ng per g tissue
DA autoreceptors [1]; limbic system
  maximal reversal of the GBL-induced increase in DA synthesis rate: approximately 160%
DA autoreceptors [1]; s.c., several doses
  dose dependence of antagonism of GBL-induced increase in DA synthesis rate: dose-dependently antagonized the GBL-induced increase in DA synthesis rate
[2]; limbic, read-out: ED50 Limbic
  ED50: 2.7 µmol/kg
[2]; striatum, read-out: ED50 Striatum
  ED50: 2.7 µmol/kg
[3]
  postsynaptic DA-receptor activation: selectivity for the autoreceptors
[4]; 8 mg/kg s.c.
  antagonism of apomorphine locomotor stimulation: did not
[4]; 8 mg/kg s.c. + apomorphine 1 mg/kg s.c., means ± s.e.m., n=5
  counts per 30 min., with apomorphine: 443 ± 26 counts per 30 min.
Rat rectal temperature
  effect on rectal temperature: failed to lower the rat rectal temperature
[5]
  antagonism of the reserpine-induced syndrome: no antagonism of the reserpine-induced syndrome was observed
DA autoreceptors [6]; 1 mg/kg s.c.
  Catalepsy: -
DA autoreceptors [6]; 1 mg/kg s.c., 2 animals
  Turning contralateral: 2
  Turning ipsilateral: 0
DA autoreceptors [6]; 2 mg/kg s.c.
  Catalepsy: -
  Duration of turning: > 2 h
  Apomorphine-induced turning: Ipsi 4/4
DA autoreceptors [6]; 2 mg/kg s.c., 4 animals
  Turning contralateral: 4
  Turning ipsilateral: 0
DA autoreceptors [6]; 4 mg/kg s.c.
  Catalepsy: -
DA autoreceptors [6]; 4 mg/kg s.c., 2 animals
  Turning contralateral: 2
  Turning ipsilateral: 0
DA autoreceptors [6]; 8 mg/kg s.c.
  Catalepsy: -
  Duration of turning: > 4 h
  Apomorphine-induced turning: Ipsi 4/4
DA autoreceptors [6]; 8 mg/kg s.c., 4 animals
  Turning contralateral: 4
  Turning ipsilateral: 0
DA autoreceptors [6]; 32 mg/kg s.c.
  Catalepsy: +
  Duration of turning: > 4 h
  Apomorphine-induced turning: Ipsi 8/8
DA autoreceptors [6]; 32 mg/kg s.c., 8 animals
  Turning contralateral: 8
  Turning ipsilateral: 0
DA autoreceptors [6]; apomorphine 1.0 mg/kg s.c., pretreatment with compound 4
  effect on apomorphine ipsilateral turning and rotatory response: not affected by pretreatment with compound 4
DA autoreceptors [6]; s.c., each dose tested
  turning direction: made the animals turn to the side contralateral to the lesion
DA autoreceptors [6]; s.c., lesioned rats
  overall appearance: indicative of a sedative action
